Results taken from ChEMBL document CHEMBL4715697, “Synthesis and biological activity of benzamide DNA minor groove binders” (2016).

Columns and labels:
Type in all cases: functional
[1] = system: SF-539; experiment: Growth inhibition of human SF-539 cells assessed as cell growth at 1 uM incubated for 48 hrs by sulforhodamine B assay relative to control; settings: read-out: Activity
[2] = system: HCT-15; experiment: Growth inhibition of human HCT-15 cells assessed as cell growth at 100 uM incubated for 48 hrs by sulforhodamine B assay relative to control; settings: read-out: Activity
[3] = system: K562; experiment: Growth inhibition of human K562 cells assessed as cell growth at 0.1 uM incubated for 48 hrs by sulforhodamine B assay relative to control; settings: read-out: Activity
[4] = system: HL-60(TB); experiment: Growth inhibition of human HL-60(TB) cells assessed as cell growth at 1 uM incubated for 48 hrs by sulforhodamine B assay relative to control; settings: read-out: Activity
[5] = system: SNB-19; experiment: Growth inhibition of human SNB-19 cells assessed as cell growth at 100 uM incubated for 48 hrs by sulforhodamine B assay relative to control; settings: read-out: Activity
[6] = system: HCT-116; experiment: Growth inhibition of human HCT-116 cells incubated for 48 hrs by sulforhodamine B assay
[7] = system: CCRF-CEM; experiment: Growth inhibition of human CCRF-CEM cells assessed as cell growth at 0.1 uM incubated for 48 hrs by sulforhodamine B assay relative to control; settings: read-out: Activity
[8] = system: IGROV-1; experiment: Growth inhibition of human IGROV-1 cells incubated for 48 hrs by sulforhodamine B assay
[9] = system: SF-268; experiment: Growth inhibition of human SF-268 cells assessed as cell growth at 1 uM incubated for 48 hrs by sulforhodamine B assay relative to control; settings: read-out: Activity
[10] = system: OVCAR-4; experiment: Growth inhibition of human OVCAR-4 cells incubated for 48 hrs by sulforhodamine B assay
[11] = system: NCI/ADR-RES; experiment: Growth inhibition of human NCI/ADR-RES cells assessed as cell growth at 100 uM incubated for 48 hrs by sulforhodamine B assay relative to control; settings: read-out: Activity
[12] = system: T47D; experiment: Growth inhibition of human T47D cells incubated for 48 hrs by sulforhodamine B assay
[13] = system: SN12C; experiment: Growth inhibition of human SN12C cells assessed as cell growth at 100 uM incubated for 48 hrs by sulforhodamine B assay relative to control; settings: read-out: Activity
[14] = system: ACHN; experiment: Growth inhibition of human ACHN cells assessed as cell growth at 0.1 uM incubated for 48 hrs by sulforhodamine B assay relative to control; settings: read-out: Activity
[15] = system: RPMI-8226; experiment: Growth inhibition of human RPMI-8226 cells incubated for 48 hrs by sulforhodamine B assay
[16] = system: SNB-19; experiment: Growth inhibition of human SNB-19 cells assessed as cell growth at 0.01 uM incubated for 48 hrs by sulforhodamine B assay relative to control; settings: read-out: Activity
[17] = system: PC-3; experiment: Growth inhibition of human PC-3 cells incubated for 48 hrs by sulforhodamine B assay
[18] = system: HCT-116; experiment: Growth inhibition of human HCT-116 cells assessed as cell growth at 0.01 uM incubated for 48 hrs by sulforhodamine B assay relative to control; settings: read-out: Activity
[19] = system: SNB-75; experiment: Growth inhibition of human SNB-75 cells assessed as cell growth at 100 uM incubated for 48 hrs by sulforhodamine B assay relative to control; settings: read-out: Activity
[20] = system: KM12; experiment: Growth inhibition of human KM12 cells assessed as cell growth at 1 uM incubated for 48 hrs by sulforhodamine B assay relative to control; settings: read-out: Activity
[21] = system: HCC 2998; experiment: Growth inhibition of human HCC 2998 cells incubated for 48 hrs by sulforhodamine B assay
[22] = system: PC-3; experiment: Growth inhibition of human PC-3 cells assessed as cell growth at 100 uM incubated for 48 hrs by sulforhodamine B assay relative to control; settings: read-out: Activity
[23] = system: SW-620; experiment: Growth inhibition of human SW-620 cells assessed as cell growth at 0.1 uM incubated for 48 hrs by sulforhodamine B assay relative to control; settings: read-out: Activity
[24] = system: HOP-62; experiment: Growth inhibition of human HOP-62 cells assessed as cell growth at 1 uM incubated for 48 hrs by sulforhodamine B assay relative to control; settings: read-out: Activity
[25] = system: SR; experiment: Growth inhibition of human SR cells assessed as cell growth at 0.1 uM incubated for 48 hrs by sulforhodamine B assay relative to control; settings: read-out: Activity
[26] = system: LOX IMVI; experiment: Growth inhibition of human LOX IMVI cells assessed as cell growth at 0.1 uM incubated for 48 hrs by sulforhodamine B assay relative to control; settings: read-out: Activity
[27] = system: M14; experiment: Growth inhibition of human M14 cells assessed as cell growth at 100 uM incubated for 48 hrs by sulforhodamine B assay relative to control; settings: read-out: Activity
[28] = system: SK-OV-3; experiment: Growth inhibition of human SK-OV-3 cells assessed as cell growth at 1 uM incubated for 48 hrs by sulforhodamine B assay relative to control; settings: read-out: Activity
[29] = system: MDA-MB-435; experiment: Growth inhibition of human MDA-MB-435 cells assessed as cell growth at 100 uM incubated for 48 hrs by sulforhodamine B assay relative to control; settings: read-out: Activity
[30] = system: OVCAR-5; experiment: Growth inhibition of human OVCAR-5 cells assessed as cell growth at 100 uM incubated for 48 hrs by sulforhodamine B assay relative to control; settings: read-out: Activity
[31] = system: A498; experiment: Growth inhibition of human A498 cells incubated for 48 hrs by sulforhodamine B assay
[32] = system: TK-10; experiment: Growth inhibition of human TK-10 cells assessed as cell growth at 1 uM incubated for 48 hrs by sulforhodamine B assay relative to control; settings: read-out: Activity
[33] = system: KM12; experiment: Growth inhibition of human KM12 cells assessed as cell growth at 100 uM incubated for 48 hrs by sulforhodamine B assay relative to control; settings: read-out: Activity
[34] = system: MOLT-4; experiment: Growth inhibition of human MOLT-4 cells assessed as cell growth at 1 uM incubated for 48 hrs by sulforhodamine B assay relative to control; settings: read-out: Activity
[35] = read-out: LC50 (the source's name)
[36] = read-out: pLC50 (the source's name) (converted)

Q: What does the source list for `CC(=O)Nc1cc(CCl)cc(NC(=O)c2ccc(C(=O)Nc3cccc(NC(=O)CCCN(C)C)c3)cc2)c1`?
A: growth at 1 µM [1]: 104%; growth at 100 µM [2]: 84%; growth at 0.1 µM [3]: 99%; growth at 1 µM [4]: 99%; growth at 100 µM [5]: 117%; GI50 ([6]; read-out: GI50): > 100 µM; CC50 [6, 35]: > 100 µM; TGI ([6]; read-out: TGI): > 100 µM; GI50 ([6]; read-out: pGI50 (converted)): > 100 µM; CC50 [6, 36]: > 100 µM; TGI ([6]; read-out: pTGI): > 100 µM; growth at 0.1 µM [7]: 113%; GI50 ([8]; read-out: GI50): > 100 µM; CC50 [8, 35]: > 100 µM; TGI ([8]; read-out: TGI): > 100 µM; GI50 ([8]; read-out: pGI50 (converted)): > 100 µM; CC50 [8, 36]: > 100 µM; TGI ([8]; read-out: pTGI): > 100 µM; growth at 1 µM [9]: 101%; GI50 ([10]; read-out: GI50): > 100 µM; LC50 (concentration killing 50% of cells) ([10]; read-out: LC50): > 100 µM; TGI ([10]; read-out: TGI): > 100 µM; GI50 ([10]; read-out: pGI50 (converted)): > 100 µM; LC50 (concentration killing 50% of cells) ([10]; read-out: pLC50 (converted)): > 100 µM; TGI ([10]; read-out: pTGI): > 100 µM; growth at 100 µM [11]: 85%; GI50 ([12]; read-out: GI50): > 100 µM; CC50 [12, 35]: > 100 µM; TGI ([12]; read-out: TGI): > 100 µM; GI50 ([12]; read-out: pGI50 (converted)): > 100 µM; CC50 [12, 36]: > 100 µM; TGI ([12]; read-out: pTGI): > 100 µM; growth at 100 µM [13]: 102%; growth at 0.1 µM [14]: 101%; GI50 ([15]; read-out: GI50): > 100 µM; CC50 [15, 35]: > 100 µM; TGI ([15]; read-out: TGI): > 100 µM; GI50 ([15]; read-out: pGI50 (converted)): > 100 µM; CC50 [15, 36]: > 100 µM; TGI ([15]; read-out: pTGI): > 100 µM; growth at 0.01 µM [16]: 106%; GI50 ([17]; read-out: GI50): > 100 µM; CC50 [17, 35]: > 100 µM; TGI ([17]; read-out: TGI): > 100 µM; GI50 ([17]; read-out: pGI50 (converted)): > 100 µM; CC50 [17, 36]: > 100 µM; TGI ([17]; read-out: pTGI): > 100 µM; growth at 0.01 µM [18]: 109%; growth at 100 µM [19]: 97%; growth at 1 µM [20]: 107%; GI50 ([21]; read-out: GI50): > 100 µM; CC50 [21, 35]: > 100 µM; TGI ([21]; read-out: TGI): > 100 µM; GI50 ([21]; read-out: pGI50 (converted)): > 100 µM; CC50 [21, 36]: > 100 µM; TGI ([21]; read-out: pTGI): > 100 µM; growth at 100 µM [22]: 88%; growth at 0.1 µM [23]: 107%; growth at 1 µM [24]: 102%; growth at 0.1 µM [25]: 107%; growth at 0.1 µM [26]: 92%; growth at 100 µM [27]: 91%; growth at 1 µM [28]: 106%; growth at 100 µM [29]: 94%; growth at 100 µM [30]: 91%; GI50 ([31]; read-out: GI50): > 100 µM; LC50 (concentration giving 50% net cell kill) ([31]; read-out: LC50): > 100 µM; TGI ([31]; read-out: TGI): > 100 µM; GI50 ([31]; read-out: pGI50 (converted)): > 100 µM; LC50 (concentration giving 50% net cell kill) ([31]; read-out: pLC50 (converted)): > 100 µM; TGI ([31]; read-out: pTGI): > 100 µM; growth at 1 µM [32]: 102%; growth at 100 µM [33]: 88%; growth at 1 µM [34]: 99%
